According to patent publication US20260274829A1, “NEW E3 UBIQUITIN LIGASE LIGAND, PROTEIN DEGRADATION AGENT AND USE THEREOF” (GLUETACS THERAPEUTICS (SHANGHAI) CO., LTD., priority 2023, published 2026):

Tests used:
Type in all cases: cell-based
[1] = target: T1, WEE1 (Homo sapiens, UniProt P30291+Q96SW2); test: Western blot degradation of WEE1 in hPBMC
T1 construct: endogenous in cells; host or cells: hPBMC
Procedure, shortened: (§1)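 Compound-treated hPBMC lysates were denatured in SDS loading buffer at 95° C for 5 minutes, run on SDS-PAGE and blotted to nitrocellulose. DC50 is the concentration giving band grayscale half that of DMSO controls, from a fitted concentration-response curve; remaining protein is band intensity normalized to an internal control protein.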

[2] = target: T2, IKZF1 (Homo sapiens, UniProt Q13422+Q96SW2); test: Western blot degradation of IKZF1 in hPBMC
T2 construct: endogenous in cells; host or cells: hPBMC
Procedure, shortened: as §1

[3] = target: T3, IKZF2 (Homo sapiens, UniProt Q96SW2+Q9UKS7); test: Western blot degradation of IKZF2 in hPBMC
T3 construct: endogenous in cells; host or cells: hPBMC
Procedure, shortened: as §1

[4] = target: T4, IKZF3 (Homo sapiens, UniProt Q96SW2+Q9UKT9); test: Western blot degradation of IKZF3 in hPBMC
T4 construct: endogenous in cells; host or cells: hPBMC
Procedure, shortened: as §1

[5] = target: T5, CK1a (Homo sapiens, UniProt P48729+Q96SW2); test: Western blot degradation of CK1a in hPBMC
T5 construct: endogenous in cells; host or cells: hPBMC
Procedure, shortened: as §1

[6] = target: T6, GSPT1 (Homo sapiens, UniProt P15170+Q96SW2); test: Western blot degradation of GSPT1 in hPBMC
T6 construct: endogenous in cells; host or cells: hPBMC
Procedure, shortened: as §1

T1 sequence (P30291 whole entry): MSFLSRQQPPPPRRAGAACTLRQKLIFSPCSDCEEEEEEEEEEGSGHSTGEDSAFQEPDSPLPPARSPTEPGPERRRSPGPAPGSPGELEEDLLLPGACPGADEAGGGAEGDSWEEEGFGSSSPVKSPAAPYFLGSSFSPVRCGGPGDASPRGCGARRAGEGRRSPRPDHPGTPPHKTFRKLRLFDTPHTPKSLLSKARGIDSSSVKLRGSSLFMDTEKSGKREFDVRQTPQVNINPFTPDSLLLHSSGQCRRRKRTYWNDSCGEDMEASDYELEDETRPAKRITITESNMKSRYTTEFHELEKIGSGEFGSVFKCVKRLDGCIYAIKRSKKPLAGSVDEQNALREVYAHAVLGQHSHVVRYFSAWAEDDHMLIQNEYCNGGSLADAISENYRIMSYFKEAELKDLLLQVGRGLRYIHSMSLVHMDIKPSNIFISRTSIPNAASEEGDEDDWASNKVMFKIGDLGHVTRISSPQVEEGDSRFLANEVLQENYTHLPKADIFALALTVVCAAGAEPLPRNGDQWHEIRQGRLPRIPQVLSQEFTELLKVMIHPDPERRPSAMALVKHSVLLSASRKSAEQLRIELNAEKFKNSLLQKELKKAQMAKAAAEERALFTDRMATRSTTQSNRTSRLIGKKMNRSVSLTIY
T1 sequence (Q96SW2 whole entry): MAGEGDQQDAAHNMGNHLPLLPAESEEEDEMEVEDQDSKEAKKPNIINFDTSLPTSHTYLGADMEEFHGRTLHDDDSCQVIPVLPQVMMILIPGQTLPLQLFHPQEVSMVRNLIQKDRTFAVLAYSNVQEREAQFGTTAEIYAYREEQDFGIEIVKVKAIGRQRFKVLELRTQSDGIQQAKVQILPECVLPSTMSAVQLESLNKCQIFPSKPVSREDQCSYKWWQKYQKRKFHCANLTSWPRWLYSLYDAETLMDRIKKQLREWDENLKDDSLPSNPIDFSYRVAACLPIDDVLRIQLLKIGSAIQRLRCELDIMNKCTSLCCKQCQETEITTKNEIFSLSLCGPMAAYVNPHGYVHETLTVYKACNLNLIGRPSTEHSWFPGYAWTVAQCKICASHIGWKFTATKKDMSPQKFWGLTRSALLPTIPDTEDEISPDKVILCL
T1 sequence (Q16531 whole entry partner): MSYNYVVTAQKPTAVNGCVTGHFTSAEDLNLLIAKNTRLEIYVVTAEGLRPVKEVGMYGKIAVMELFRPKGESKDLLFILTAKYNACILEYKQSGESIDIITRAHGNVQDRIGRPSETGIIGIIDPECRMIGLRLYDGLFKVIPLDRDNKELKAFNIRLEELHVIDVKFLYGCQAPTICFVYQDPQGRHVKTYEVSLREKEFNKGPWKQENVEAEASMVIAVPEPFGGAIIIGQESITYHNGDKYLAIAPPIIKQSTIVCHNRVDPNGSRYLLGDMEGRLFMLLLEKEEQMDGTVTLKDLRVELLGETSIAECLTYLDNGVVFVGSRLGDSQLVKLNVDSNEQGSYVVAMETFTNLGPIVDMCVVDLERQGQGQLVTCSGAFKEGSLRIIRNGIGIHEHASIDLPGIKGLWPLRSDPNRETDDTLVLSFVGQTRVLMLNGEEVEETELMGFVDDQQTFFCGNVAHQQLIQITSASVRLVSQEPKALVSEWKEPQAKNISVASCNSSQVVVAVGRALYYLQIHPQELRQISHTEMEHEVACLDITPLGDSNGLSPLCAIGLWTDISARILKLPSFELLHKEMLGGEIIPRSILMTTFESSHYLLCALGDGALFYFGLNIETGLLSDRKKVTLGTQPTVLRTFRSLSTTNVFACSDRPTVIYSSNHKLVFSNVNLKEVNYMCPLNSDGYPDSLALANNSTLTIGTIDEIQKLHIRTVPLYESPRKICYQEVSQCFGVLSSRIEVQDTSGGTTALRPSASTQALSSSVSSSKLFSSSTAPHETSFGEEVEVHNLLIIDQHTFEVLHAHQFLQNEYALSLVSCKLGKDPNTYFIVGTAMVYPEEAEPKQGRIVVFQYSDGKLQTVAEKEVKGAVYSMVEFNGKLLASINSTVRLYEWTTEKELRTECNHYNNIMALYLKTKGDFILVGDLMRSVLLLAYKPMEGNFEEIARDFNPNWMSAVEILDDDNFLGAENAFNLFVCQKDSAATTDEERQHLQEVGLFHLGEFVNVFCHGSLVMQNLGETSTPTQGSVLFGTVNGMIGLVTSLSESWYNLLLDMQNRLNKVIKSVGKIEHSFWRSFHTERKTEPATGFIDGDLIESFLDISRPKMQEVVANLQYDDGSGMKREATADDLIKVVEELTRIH
T3 sequence (Q9UKS7 whole entry): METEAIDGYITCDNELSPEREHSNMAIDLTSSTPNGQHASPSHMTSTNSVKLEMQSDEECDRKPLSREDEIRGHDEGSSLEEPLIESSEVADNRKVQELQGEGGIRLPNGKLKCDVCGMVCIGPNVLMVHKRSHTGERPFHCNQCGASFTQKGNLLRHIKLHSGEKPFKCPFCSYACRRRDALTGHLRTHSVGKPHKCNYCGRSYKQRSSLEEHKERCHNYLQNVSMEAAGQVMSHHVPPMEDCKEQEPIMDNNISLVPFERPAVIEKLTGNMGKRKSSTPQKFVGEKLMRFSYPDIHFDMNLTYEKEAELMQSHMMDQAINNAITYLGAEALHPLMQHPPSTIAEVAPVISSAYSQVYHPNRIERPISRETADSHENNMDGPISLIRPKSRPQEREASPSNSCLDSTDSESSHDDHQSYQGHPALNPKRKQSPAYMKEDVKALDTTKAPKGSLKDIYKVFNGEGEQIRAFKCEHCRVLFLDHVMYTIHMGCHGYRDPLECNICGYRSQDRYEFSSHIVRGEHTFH
T3 sequence (Q96SW2 whole entry): as the sequence (Q96SW2 whole entry) above
T3 sequence (Q16531 whole entry partner): as the sequence (Q16531 whole entry partner) above
T4 sequence (Q9UKT9 whole entry): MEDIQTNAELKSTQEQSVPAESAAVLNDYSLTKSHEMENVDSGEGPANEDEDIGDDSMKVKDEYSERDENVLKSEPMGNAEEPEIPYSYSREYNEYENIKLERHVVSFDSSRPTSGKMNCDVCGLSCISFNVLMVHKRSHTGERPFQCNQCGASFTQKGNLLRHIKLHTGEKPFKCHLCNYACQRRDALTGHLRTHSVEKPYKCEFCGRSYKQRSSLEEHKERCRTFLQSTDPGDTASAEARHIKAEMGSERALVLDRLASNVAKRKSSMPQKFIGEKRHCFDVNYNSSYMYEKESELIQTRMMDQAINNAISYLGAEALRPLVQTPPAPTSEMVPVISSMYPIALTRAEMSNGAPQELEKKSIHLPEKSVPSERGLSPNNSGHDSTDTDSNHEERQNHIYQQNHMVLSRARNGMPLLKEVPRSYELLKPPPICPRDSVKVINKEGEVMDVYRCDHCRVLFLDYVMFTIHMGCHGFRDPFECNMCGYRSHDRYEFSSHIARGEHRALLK
T4 sequence (Q96SW2 whole entry): as the sequence (Q96SW2 whole entry) above
T4 sequence (Q16531 whole entry partner): as the sequence (Q16531 whole entry partner) above
T2 sequence (Q13422 whole entry): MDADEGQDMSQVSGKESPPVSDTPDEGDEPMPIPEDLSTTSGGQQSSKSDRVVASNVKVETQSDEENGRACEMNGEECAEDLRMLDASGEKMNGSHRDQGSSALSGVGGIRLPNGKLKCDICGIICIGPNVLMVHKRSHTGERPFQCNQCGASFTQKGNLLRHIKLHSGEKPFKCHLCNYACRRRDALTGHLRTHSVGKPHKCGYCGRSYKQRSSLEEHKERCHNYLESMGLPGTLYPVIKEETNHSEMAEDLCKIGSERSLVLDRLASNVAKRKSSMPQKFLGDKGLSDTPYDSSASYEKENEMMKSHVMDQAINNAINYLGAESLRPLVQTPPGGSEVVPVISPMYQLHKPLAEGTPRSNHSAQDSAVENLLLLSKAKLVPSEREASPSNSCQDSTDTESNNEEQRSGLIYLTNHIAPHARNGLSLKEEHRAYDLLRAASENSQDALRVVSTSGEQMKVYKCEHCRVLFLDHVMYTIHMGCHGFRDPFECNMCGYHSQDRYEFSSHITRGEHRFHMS
T2 sequence (Q96SW2 whole entry): as the sequence (Q96SW2 whole entry) above
T2 sequence (Q16531 whole entry partner): as the sequence (Q16531 whole entry partner) above
T5 sequence (P48729 whole entry): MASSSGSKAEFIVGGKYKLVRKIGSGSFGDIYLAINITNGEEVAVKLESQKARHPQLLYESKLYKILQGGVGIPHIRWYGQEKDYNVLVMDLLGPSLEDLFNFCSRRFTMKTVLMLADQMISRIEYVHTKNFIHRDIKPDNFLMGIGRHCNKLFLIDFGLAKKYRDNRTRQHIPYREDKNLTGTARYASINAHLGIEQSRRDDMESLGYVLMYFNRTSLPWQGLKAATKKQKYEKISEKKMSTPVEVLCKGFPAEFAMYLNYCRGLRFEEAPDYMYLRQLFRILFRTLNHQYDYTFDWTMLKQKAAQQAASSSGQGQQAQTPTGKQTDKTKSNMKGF
T5 sequence (Q96SW2 whole entry): as the sequence (Q96SW2 whole entry) above
T5 sequence (Q16531 whole entry partner): as the sequence (Q16531 whole entry partner) above

Structure (SMILES): O=C1CCC(c2ccc(CO)nn2)C(=O)N1 (stereo not drawn) [GT-07636, 3-(6-(hydroxymethyl)pyridazin-3-yl)piperidine-2,6-dione]
- Degradation of substrate protein WEE1 (substrate protein remaining %) [1]: B (B is defined as substrate protein remaining % > 80%)
- Degradation of substrate protein IKZF1 (substrate protein remaining %) [2]: A (A is defined as 0% ≤ substrate protein remaining % ≤ 80%)
- Degradation of substrate protein IKZF2 (substrate protein remaining %) [3]: A (A is defined as 0% ≤ substrate protein remaining % ≤ 80%)
- Degradation of substrate protein IKZF3 (substrate protein remaining %) [4]: A (A is defined as 0% ≤ substrate protein remaining % ≤ 80%)
- Degradation of substrate protein CK1a (substrate protein remaining %) [5]: B (B is defined as substrate protein remaining % > 80%)
- Degradation of substrate protein GSPT1 (substrate protein remaining %) [6]: A (A is defined as 0% ≤ substrate protein remaining % ≤ 80%)

Structure (SMILES): CC(C)(C)[Si](C)(C)OCc1ccncc1NC1CCC(=O)NC1=O (stereo not drawn) [GT-07638, 3-((4-(((tert-butyldimethylsilyl)oxy)methyl)pyridin-3-yl)amino)piperidine-2,6-dione]
- Degradation of substrate protein WEE1 (substrate protein remaining %) [1]: A (A is defined as 0% ≤ substrate protein remaining % ≤ 80%)
- Degradation of substrate protein IKZF1 (substrate protein remaining %) [2]: B (B is defined as substrate protein remaining % > 80%)
- Degradation of substrate protein IKZF2 (substrate protein remaining %) [3]: A (A is defined as 0% ≤ substrate protein remaining % ≤ 80%)
- Degradation of substrate protein IKZF3 (substrate protein remaining %) [4]: A (A is defined as 0% ≤ substrate protein remaining % ≤ 80%)
- Degradation of substrate protein CK1a (substrate protein remaining %) [5]: B (B is defined as substrate protein remaining % > 80%)
- Degradation of substrate protein GSPT1 (substrate protein remaining %) [6]: A (A is defined as 0% ≤ substrate protein remaining % ≤ 80%)

Structure (SMILES): CC(C)(C)[Si](C)(C)OCc1cncnc1NC1CCC(=O)NC1=O (stereo not drawn) [GT-07639, 3-((5-(((tert-butyldimethylsilyl)oxy)methyl)pyrimidin-4-yl)amino)piperidine-2,6-dione]
- Degradation of substrate protein WEE1 (substrate protein remaining %) [1]: A (A is defined as 0% ≤ substrate protein remaining % ≤ 80%)
- Degradation of substrate protein IKZF1 (substrate protein remaining %) [2]: A (A is defined as 0% ≤ substrate protein remaining % ≤ 80%)
- Degradation of substrate protein IKZF2 (substrate protein remaining %) [3]: A (A is defined as 0% ≤ substrate protein remaining % ≤ 80%)
- Degradation of substrate protein IKZF3 (substrate protein remaining %) [4]: A (A is defined as 0% ≤ substrate protein remaining % ≤ 80%)
- Degradation of substrate protein CK1a (substrate protein remaining %) [5]: A (A is defined as 0% ≤ substrate protein remaining % ≤ 80%)
- Degradation of substrate protein GSPT1 (substrate protein remaining %) [6]: A (A is defined as 0% ≤ substrate protein remaining % ≤ 80%)

Structure (SMILES): O=Cc1ccc(NC2CCC(=O)NC2=O)cn1 (stereo not drawn) [GT-07640, 5-((2,6-dioxopiperidin-3-yl)amino)picolinaldehyde]
- Degradation of substrate protein WEE1 (substrate protein remaining %) [1]: A (A is defined as 0% ≤ substrate protein remaining % ≤ 80%)
- Degradation of substrate protein IKZF1 (substrate protein remaining %) [2]: A (A is defined as 0% ≤ substrate protein remaining % ≤ 80%)
- Degradation of substrate protein IKZF2 (substrate protein remaining %) [3]: A (A is defined as 0% ≤ substrate protein remaining % ≤ 80%)
- Degradation of substrate protein IKZF3 (substrate protein remaining %) [4]: A (A is defined as 0% ≤ substrate protein remaining % ≤ 80%)
- Degradation of substrate protein CK1a (substrate protein remaining %) [5]: B (B is defined as substrate protein remaining % > 80%)
- Degradation of substrate protein GSPT1 (substrate protein remaining %) [6]: A (A is defined as 0% ≤ substrate protein remaining % ≤ 80%)

Structure (SMILES): CC(C)(C)[Si](C)(C)OCc1cc(NC2CCC(=O)NC2=O)ncc1F (stereo not drawn) [GT-07724, 3-((4-(((tert-butyldimethylsilyl)oxy)methyl)-5-fluoropyridin-2-yl)amino)piperidine-2,6-dione]
- Degradation of substrate protein WEE1 (substrate protein remaining %) [1]: A (A is defined as 0% ≤ substrate protein remaining % ≤ 80%)
- Degradation of substrate protein IKZF1 (substrate protein remaining %) [2]: A (A is defined as 0% ≤ substrate protein remaining % ≤ 80%)
- Degradation of substrate protein IKZF2 (substrate protein remaining %) [3]: A (A is defined as 0% ≤ substrate protein remaining % ≤ 80%)
- Degradation of substrate protein IKZF3 (substrate protein remaining %) [4]: A (A is defined as 0% ≤ substrate protein remaining % ≤ 80%)
- Degradation of substrate protein CK1a (substrate protein remaining %) [5]: B (B is defined as substrate protein remaining % > 80%)
- Degradation of substrate protein GSPT1 (substrate protein remaining %) [6]: A (A is defined as 0% ≤ substrate protein remaining % ≤ 80%)

Structure (SMILES): O=C1CCC(Nc2cc(CO)c(F)cn2)C(=O)N1 (stereo not drawn) [GT-07725, 3-((5-fluoro-4-(hydroxymethyl)pyridin-2-yl)amino)piperidine-2,6-dione]
- Degradation of substrate protein WEE1 (substrate protein remaining %) [1]: A (A is defined as 0% ≤ substrate protein remaining % ≤ 80%)
- Degradation of substrate protein IKZF1 (substrate protein remaining %) [2]: A (A is defined as 0% ≤ substrate protein remaining % ≤ 80%)
- Degradation of substrate protein IKZF2 (substrate protein remaining %) [3]: A (A is defined as 0% ≤ substrate protein remaining % ≤ 80%)
- Degradation of substrate protein IKZF3 (substrate protein remaining %) [4]: A (A is defined as 0% ≤ substrate protein remaining % ≤ 80%)
- Degradation of substrate protein CK1a (substrate protein remaining %) [5]: B (B is defined as substrate protein remaining % > 80%)
- Degradation of substrate protein GSPT1 (substrate protein remaining %) [6]: A (A is defined as 0% ≤ substrate protein remaining % ≤ 80%)

Structure (SMILES): CC(C)(C)[Si](C)(C)OCc1ccc(NC2CCC(=O)NC2=O)nn1 (stereo not drawn) [GT-07726, 3-((6-(((tert-butyldimethylsilyl)oxy)methyl)pyridazin-3-yl)amino)piperidine-2,6-dione]
- Degradation of substrate protein WEE1 (substrate protein remaining %) [1]: A (A is defined as 0% ≤ substrate protein remaining % ≤ 80%)
- Degradation of substrate protein IKZF1 (substrate protein remaining %) [2]: A (A is defined as 0% ≤ substrate protein remaining % ≤ 80%)
- Degradation of substrate protein IKZF2 (substrate protein remaining %) [3]: A (A is defined as 0% ≤ substrate protein remaining % ≤ 80%)
- Degradation of substrate protein IKZF3 (substrate protein remaining %) [4]: A (A is defined as 0% ≤ substrate protein remaining % ≤ 80%)
- Degradation of substrate protein CK1a (substrate protein remaining %) [5]: B (B is defined as substrate protein remaining % > 80%)
- Degradation of substrate protein GSPT1 (substrate protein remaining %) [6]: B (B is defined as substrate protein remaining % > 80%)

Structure (SMILES): O=C1CCC(Nc2ncncc2CO)C(=O)N1 (stereo not drawn) [GT-07727, 3-((5-(hydroxymethyl)pyrimidin-4-yl)amino)piperidine-2,6-dione]
- Degradation of substrate protein WEE1 (substrate protein remaining %) [1]: A (A is defined as 0% ≤ substrate protein remaining % ≤ 80%)
- Degradation of substrate protein IKZF1 (substrate protein remaining %) [2]: A (A is defined as 0% ≤ substrate protein remaining % ≤ 80%)
- Degradation of substrate protein IKZF2 (substrate protein remaining %) [3]: A (A is defined as 0% ≤ substrate protein remaining % ≤ 80%)
- Degradation of substrate protein IKZF3 (substrate protein remaining %) [4]: A (A is defined as 0% ≤ substrate protein remaining % ≤ 80%)
- Degradation of substrate protein CK1a (substrate protein remaining %) [5]: B (B is defined as substrate protein remaining % > 80%)
- Degradation of substrate protein GSPT1 (substrate protein remaining %) [6]: B (B is defined as substrate protein remaining % > 80%)

Structure (SMILES): O=C1CCN(c2cncc(CCl)n2)C(=O)N1 [GT-07728, 1-(6-(chloromethyl)pyrazin-2-yl)dihydropyrimidine-2,4(1H,3H)-dione]
- Degradation of substrate protein WEE1 (substrate protein remaining %) [1]: A (A is defined as 0% ≤ substrate protein remaining % ≤ 80%)
- Degradation of substrate protein IKZF1 (substrate protein remaining %) [2]: A (A is defined as 0% ≤ substrate protein remaining % ≤ 80%)
- Degradation of substrate protein IKZF2 (substrate protein remaining %) [3]: A (A is defined as 0% ≤ substrate protein remaining % ≤ 80%)
- Degradation of substrate protein IKZF3 (substrate protein remaining %) [4]: A (A is defined as 0% ≤ substrate protein remaining % ≤ 80%)
- Degradation of substrate protein CK1a (substrate protein remaining %) [5]: B (B is defined as substrate protein remaining % > 80%)
- Degradation of substrate protein GSPT1 (substrate protein remaining %) [6]: B (B is defined as substrate protein remaining % > 80%)

Structure (SMILES): NCc1cc(N2CCC(=O)NC2=O)cnc1F [GT-07729, 1-(5-(aminomethyl)-6-fluoropyridin-3-yl)dihydropyrimidine-2,4(1H,3H)-dione]
- Degradation of substrate protein WEE1 (substrate protein remaining %) [1]: A (A is defined as 0% ≤ substrate protein remaining % ≤ 80%)
- Degradation of substrate protein IKZF1 (substrate protein remaining %) [2]: A (A is defined as 0% ≤ substrate protein remaining % ≤ 80%)
- Degradation of substrate protein IKZF2 (substrate protein remaining %) [3]: A (A is defined as 0% ≤ substrate protein remaining % ≤ 80%)
- Degradation of substrate protein IKZF3 (substrate protein remaining %) [4]: A (A is defined as 0% ≤ substrate protein remaining % ≤ 80%)
- Degradation of substrate protein CK1a (substrate protein remaining %) [5]: B (B is defined as substrate protein remaining % > 80%)
- Degradation of substrate protein GSPT1 (substrate protein remaining %) [6]: A (A is defined as 0% ≤ substrate protein remaining % ≤ 80%)

Structure (SMILES): NCc1cncc(N2CCC(=O)NC2=O)n1 [GT-07801, 1-(6-(aminomethyl)pyrazin-2-yl)dihydropyrimidine-2,4(1H,3H)-dione]
- Degradation of substrate protein WEE1 (substrate protein remaining %) [1]: B (B is defined as substrate protein remaining % > 80%)
- Degradation of substrate protein IKZF1 (substrate protein remaining %) [2]: B (B is defined as substrate protein remaining % > 80%)
- Degradation of substrate protein IKZF2 (substrate protein remaining %) [3]: B (B is defined as substrate protein remaining % > 80%)
- Degradation of substrate protein IKZF3 (substrate protein remaining %) [4]: B (B is defined as substrate protein remaining % > 80%)
- Degradation of substrate protein CK1a (substrate protein remaining %) [5]: A (A is defined as 0% ≤ substrate protein remaining % ≤ 80%)
- Degradation of substrate protein GSPT1 (substrate protein remaining %) [6]: B (B is defined as substrate protein remaining % > 80%)

Structure (SMILES): O=C1CCC(Nc2ccc(CO)nn2)C(=O)N1 (stereo not drawn) [GT-07803, 3-((6-(hydroxymethyl)pyridazin-3-yl)amino)piperidine-2,6-dione]
- Degradation of substrate protein WEE1 (substrate protein remaining %) [1]: B (B is defined as substrate protein remaining % > 80%)
- Degradation of substrate protein IKZF1 (substrate protein remaining %) [2]: A (A is defined as 0% ≤ substrate protein remaining % ≤ 80%)
- Degradation of substrate protein IKZF2 (substrate protein remaining %) [3]: A (A is defined as 0% ≤ substrate protein remaining % ≤ 80%)
- Degradation of substrate protein IKZF3 (substrate protein remaining %) [4]: A (A is defined as 0% ≤ substrate protein remaining % ≤ 80%)
- Degradation of substrate protein CK1a (substrate protein remaining %) [5]: B (B is defined as substrate protein remaining % > 80%)
- Degradation of substrate protein GSPT1 (substrate protein remaining %) [6]: B (B is defined as substrate protein remaining % > 80%)
